Experimental data reported in patent US6849732B2, “Metalloproteinase inhibitors, pharmaceutical compositions containing them and their pharmaceutical uses, and methods and intermediates useful for their preparation” (Agouron Pharmaceuticals, Inc., priority 1995, dated 2005).
Where a name gives a salt, the structure may show the parent alone. Read-outs that look alike come from different tables or passages of the source.

Columns and labels:
Coll3 = Coll3 (Homo sapiens, UniProt P45452); assay: MCA fluorogenic enzyme assay, competitive inhibition analysis (Ki,app), Coll3; type: biochemical; details: MCA peptide substrate, 37° C., pH 7.5, read-out: Enzyme Inhibition Constants (K1) Coll3
stromelysin (HSLN) = stromelysin (HSLN) (Homo sapiens, UniProt P08254); assay: MCA fluorogenic enzyme assay, competitive inhibition analysis (Ki,app), stromelysin; type: biochemical
matrilysin (Matr.) = biological target: T1, matrilysin (Matr.) (Homo sapiens, UniProt P09237); assay: MCA fluorogenic enzyme assay, competitive inhibition analysis (Ki,app), matrilysin; type: biochemical; details: MCA peptide substrate, 37° C., pH 7.5, read-out: Enzyme Inhibition Constants (K1) Matr.
T1 sequence (P09237 95-267): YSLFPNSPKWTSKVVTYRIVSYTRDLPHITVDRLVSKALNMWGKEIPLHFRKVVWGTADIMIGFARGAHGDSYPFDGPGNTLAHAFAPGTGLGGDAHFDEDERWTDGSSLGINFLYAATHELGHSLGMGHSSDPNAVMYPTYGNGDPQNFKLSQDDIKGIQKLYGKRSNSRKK
Experimental: Stromelysin enzymatic activity was measured using a modified version of a resonance energy transfer fluorogenic assay as described in FEBS, vol. 296(3), p. 263 (1992), the disclosure of which is incorporated herein by reference. The MCA-peptide substrate is shown below. The fluorescent MCA group is quenched by resonance energy transfer to the 2,4-dinitrophenyl group. Matrix metalloproteinases cleave this substrate at the Gly-Leu bond. Cleavage results in the loss of energy transfer and a large increase in fluorescence of the MCA group. [drawing 56] 7-methoxycoumarin-4-yl-acetyl-pro-leu-gly-leu-3-(2,4-dinitrophenyl)-L-2,3-diaminoproprionyl-ala-arg-NH2
The MCA assay was performed at 37° C. in buffer containing 50 mM Tricine (pH 7.5), 10 mM CaCl2, 200 mM NaCl, and 1% DMSO with the following concentrations of matrix metalloproteinases: 1.4 nM stromelyin, 0.063 nM matrilysin, and 0.030 nM gelatinase A. The concentration of MCA substrate was 10 or 20 μM in a final volume of 1.6 mL. Fluorescence data was collected with Perkin-Elmer LS-5B and LS-5B spectrofluorimeters with λexcitation=328 nm and λemission=393 nm. Spectrofluorimeters were interfaced with IBM-compatible microcomputer systems.
The Km for the MCA peptide substrate with the matrix metalloproteinases is quite high and exceeds its solubility under assay conditions. Consequently, the apparent Ki (Ki,app) was determined to describe the strength of inhibition. However, in this case, Ki,app would be essentially equal to Ki since [S]<<Km. For the determination of Ki,app, the concentration of the inhibitor was varied at a constant and low concentration of substrate and the steady-state rates of fluorescence change determined. In most cases absorptive quench due to the presence of ligand was not observed. For slow-binding inhibitors, onset of inhibition curves were collected for at least 45 minutes so that equilibrium was established. Steady-state rates of fluorescence change were obtained by fitting a curve to an equation for a single exponential decay containing a linear phase. The fitted value of the linear phase was taken as the steady-state rate. The steady-state rates were fitted to the Michaelis equation describing competitive inhibition by non-linear methods. Data resulting from tight-binding inhibition was analyzed, and Ki,app determined by fitting the data to the tight-binding equation of Morrison See (Biochem. Biophys. Acta, vol. 185, pp. 269-286 (1969)) by non-linear methods.

gelatinase A (HG72kD) = biological target: T2, gelatinase A (HG72kD) (Homo sapiens, UniProt P08253); assay: MCA fluorogenic enzyme assay, competitive inhibition analysis (Ki,app), gelatinase A; type: biochemical; details: MCA peptide substrate, 37° C., pH 7.5, read-out: Enzyme Inhibition Constants (K1) HG72kD
T2 sequence (P08253 110-660): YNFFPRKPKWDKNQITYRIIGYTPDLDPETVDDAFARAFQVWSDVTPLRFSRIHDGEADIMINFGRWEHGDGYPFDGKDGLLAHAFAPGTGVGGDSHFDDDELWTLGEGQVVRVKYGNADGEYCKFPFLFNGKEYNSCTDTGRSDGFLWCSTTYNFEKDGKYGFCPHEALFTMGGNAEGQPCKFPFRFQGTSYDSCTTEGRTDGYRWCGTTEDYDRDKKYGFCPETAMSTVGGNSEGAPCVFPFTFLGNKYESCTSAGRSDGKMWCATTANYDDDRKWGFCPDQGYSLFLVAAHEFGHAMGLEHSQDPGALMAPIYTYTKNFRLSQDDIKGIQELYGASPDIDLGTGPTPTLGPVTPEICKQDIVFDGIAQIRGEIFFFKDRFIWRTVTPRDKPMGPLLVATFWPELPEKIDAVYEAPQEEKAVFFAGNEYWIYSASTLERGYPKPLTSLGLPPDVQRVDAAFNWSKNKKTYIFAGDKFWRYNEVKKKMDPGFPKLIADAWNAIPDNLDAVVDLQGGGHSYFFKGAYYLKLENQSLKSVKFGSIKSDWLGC

HFC = biological target: T3, HFC (Homo sapiens, UniProt P03956); assay: MCA fluorogenic enzyme assay, competitive inhibition analysis (Ki,app), HFC; type: biochemical; details: MCA peptide substrate, 37° C., pH 7.5, read-out: Enzyme Inhibition Constants (K1) HFC
T3 sequence (P03956 100-469): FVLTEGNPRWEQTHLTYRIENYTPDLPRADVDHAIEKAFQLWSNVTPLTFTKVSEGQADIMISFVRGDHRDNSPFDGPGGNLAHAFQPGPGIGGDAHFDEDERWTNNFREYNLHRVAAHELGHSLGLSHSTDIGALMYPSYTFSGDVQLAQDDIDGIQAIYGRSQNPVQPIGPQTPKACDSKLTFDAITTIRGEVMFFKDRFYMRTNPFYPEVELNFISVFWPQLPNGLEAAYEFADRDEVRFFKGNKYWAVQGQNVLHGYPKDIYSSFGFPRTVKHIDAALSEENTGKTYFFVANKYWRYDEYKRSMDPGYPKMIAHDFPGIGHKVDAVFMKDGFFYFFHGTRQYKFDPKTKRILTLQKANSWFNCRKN

[1] = system: murine Lewis lung carcinoma (NIH) tumor line; assay: Tumor model: subcutaneous Lewis lung carcinoma, primary tumor growth and lung metastases; type: in vivo, female BDF1 mice; details: 50 mg/kg; for Tumor Growth Delay / % Inhibition-Lung Metastases: i.p., daily, Day 1-Day 21; for Tumor Growth Delay: delay in reaching 1000 mm^3 tumor volume between control and treated animals; for % Inhibition-Lung Metastases: metastases counted 22 days after tumor implantation
Source text: Primary subcutaneous tumors were established in female BDF1 mice by trocar inoculation of the murine Lewis lung carcinoma (NIH) tumor line. This tumor line produces spontaneous lung metastases which arise from the primary tumor. Primary tumor growth was monitored by measuring the length and width of the subcutaneous tumor using calipers; lung metastases were counted at the end of the experiment (22 days after tumor implantation) by removing the lungs and counting the lesions using a dissecting microscope. The test compound was administered daily, i.p., beginning 24 hours after tumor implantation (day 1) and continuing through day 21. Primary tumor volumes and number of lung metastases were compared to control animals using an ANOVA followed by a comparison of means using the F statistic. […] All drugs were administered at 50 mg/kg, i.p., daily, Day 1-Day 21.

[2] = Ki,app, MCA peptide substrate, 37° C., pH 7.5, read-out: Enzyme Inhibition Constants (K1) HSLN

stromelysin (HSLN), sequence (P08254 100-477): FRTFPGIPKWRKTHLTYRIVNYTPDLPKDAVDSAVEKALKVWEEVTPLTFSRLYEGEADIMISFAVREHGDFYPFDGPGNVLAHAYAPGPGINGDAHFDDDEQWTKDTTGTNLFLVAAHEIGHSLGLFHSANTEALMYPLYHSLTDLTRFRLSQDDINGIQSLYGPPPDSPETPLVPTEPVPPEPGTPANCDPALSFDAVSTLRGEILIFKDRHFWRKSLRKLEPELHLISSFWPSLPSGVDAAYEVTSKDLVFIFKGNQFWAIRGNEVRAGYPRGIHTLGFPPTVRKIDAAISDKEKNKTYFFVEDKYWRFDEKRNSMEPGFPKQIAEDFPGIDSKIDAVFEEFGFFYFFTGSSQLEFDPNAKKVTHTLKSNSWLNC

Ki (Coll3) [nM]	Ki (matrilysin (Matr.)) [nM]	Ki (gelatinase A (HG72kD)) [nM]	Ki (HFC) [nM]	Ki (stromelysin (HSLN)) [nM]	Structure (SMILES)	Ki (stromelysin (HSLN); [2]) [nM]	Tumor Growth Delay [1]	% Inhibition-Lung Metastases [1]	tumor growth delay relative to control (significance, in words) ([1]; p<0.025)	number of lung metastases relative to the control (significance, in words) ([1]; p<0.05)
0.021	77	0.031	8.9	–	O=C(NO)[C@H]1COCCN1S(=O)(=O)c1ccc(Oc2ccc(Cl)cc2)cc1 [8(a), 3(R)-N-hydroxy-4-(4-(4-chlorophenoxy)benzenesulfonyl)-morpholine-3-carboxamide]	0.093	-0.1 days	7.5%	–	–
0.363	171	0.413	34	–	O=C(NO)[C@H]1CNCCN1S(=O)(=O)c1ccc(Oc2ccc(Cl)cc2)cc1 [Example 10(a), 2(R)-N-hydroxy-1-(4-(4-chlorophenoxy)benzenesulfonyl)-piperazine-2-carboxamide hydrochloride]	1	–	–	–	–
0.006	40	0.004	7	–	Cn1cnc(S(=O)(=O)N2CCN(S(=O)(=O)c3ccc(Oc4ccc(Cl)cc4)cc3)[C@@H](C(=O)NO)C2)c1 [Example 12(d), 2 (R)-N-hydroxy-1-(4-(4-chlorophenoxy)benzenesulfonyl)-4-(1-methylimidazole-4-sulfonyl)-piperazine-2-carboxamide]	0.09	–	–	–	–
0.124	1300	0.057	210	–	O=C1C[C@H](C(=O)NO)N(S(=O)(=O)c2ccc(Oc3ccccc3)cc2)CN1 [Example 15(a), 6(R)-(N-hydroxycarbamoyl)-1-(4-phenoxy)benzenesulfonyl-tetrahydropyrimidin-4-one]	4.6	–	–	–	–
0.001	2.8	0.003	0.56	–	CC1(C)SCCN(S(=O)(=O)c2ccc(Oc3ccc(Br)cc3)cc2)[C@H]1C(=O)NO [Example 16(a), 3(S)-N-hydroxy-4-(4-(4-bromophenoxy)benzenesulfonyl)-2,2-dimethyl-tetrahydro-2H-1,4-thiazine-3-carboxamide]	0.017	–	–	–	–
0.01	11	0.009	3.6	–	CC1(C)[C@H](C(=O)NO)N(S(=O)(=O)c2ccc(Oc3ccc(Br)cc3)cc2)CC[S@@+]1[O-] [Example 17(a), 1(R),3(S)-N-hydroxy-4-(4-(4-bromophenoxy)benzenesulfonyl)-2,2-dimethyl-1-oxo-tetrahydro-2H-1,4-thiazine-3-carboxamide]	0.056	–	–	–	–
0.074	70	0.202	12	0.51	CC1(C)SCCN(S(=O)(=O)c2ccc(Oc3ccccn3)cc2)[C@H]1C(=O)NO [Example 18(b), 3(S)-N-hydroxy-4-(4-((pyrid-2-yl)oxy)benzenesulfonyl)-2,2-dimethyl-tetrahydro-2H-1,4-thiazine-3-carboxamide]	–	–	–	–	–

Structure (SMILES)	Ki (Coll3) [nM]	Ki (matrilysin (Matr.)) [nM]	Ki (gelatinase A (HG72kD)) [nM]	Ki (HFC) [nM]	Ki (stromelysin (HSLN)) [nM]	Ki (stromelysin (HSLN); [2]) [nM]	Tumor Growth Delay [1]	% Inhibition-Lung Metastases [1]	tumor growth delay relative to control (significance, in words) ([1]; p<0.025)	number of lung metastases relative to the control (significance, in words) ([1]; p<0.05)
O=C(NO)C1C[S+]([O-])CCN1S(=O)(=O)c1ccc(Oc2ccc(F)cc2)cc1 (racemic) [Example 14(b), 1(R/S),3(R/S)-N-hydroxy-1-oxo-4-(4-(4-fluorophenoxy)benzene-sulfonyl)-tetrahydro-2H-1,4-thiazine-3-carboxamide]	0.016	306	0.034	28	–	0.79	–	–	–	–
CC(C)(C)OC(=O)N1CCN(S(=O)(=O)c2ccc(Oc3ccc(Cl)cc3)cc2)[C@@H](C(=O)NO)C1 [Example 9(a), 2(R)-N-hydroxy-1-(4-(4-chlorophenoxy)benzenesulfonyl)-4-(t-butoxycarbonyl)-piperazine-2-carboxamide]	0.006	142	0.007	–	–	0.31	7.2 days (p < 0.025)	77.6% (p < 0.05)	statistically significant	statistically significant
O=C(NO)[C@H]1CNCCN1S(=O)(=O)c1ccc(Oc2ccc(F)cc2)cc1 [Example 10(b), 2(R)-N-hydroxy-1-(4-(4-fluorophenoxy)benzenesulfonyl)-piperazine-2-carboxamide hydrochloride]	0.257	365	0.232	44	–	0.98	–	–	–	–
CN1CCN(S(=O)(=O)c2ccc(Oc3ccc(Cl)cc3)cc2)[C@@H](C(=O)NO)C1 [Example 11(a), 2(R)-N-hydroxy-1-(4-(4-chlorophenoxy)benzenesulfonyl)-4-methyl-piperazine-2-carboxamide hydrochloride]	0.02	993	0.025	130	–	0.67	–	–	–	–
CS(=O)(=O)N1CCN(S(=O)(=O)c2ccc(Oc3ccc(Cl)cc3)cc2)[C@@H](C(=O)NO)C1 [Example 12(a), 2(R)-N-hydroxy-1-(4-(4-chlorophenoxy)benzenesulfonyl)-4-(methanesulfonyl)-piperazine-2-carboxamide]	0.002	28	0.003	2.5	–	0.043	–	–	–	–
CS(=O)(=O)N1CCN(S(=O)(=O)c2ccc(Oc3ccc(F)cc3)cc2)[C@@H](C(=O)NO)C1 [Example 12(b)]	0.005	52	0.007	4.7	–	0.13	–	–	–	–
